Laboratory results published in PubChem BioAssay (NCI).
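Method: 48-hour compound exposure of cells in 96-well plates, five concentrations, linear interpolation of endpoints. GI50: concentration for 50% inhibition of growth. Definition used: TGI = concentration required for complete inhibition of growth.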

Assays:
Experiment in all cases: inhibition of tumour cell growth, NCI panel, 48 h
786-0 renal = tested on: 786-0 renal
A498 renal = tested on: A498 renal
A549 NSCLC = tested on: A549 NSCLC
ACHN renal = tested on: ACHN renal
BT-549 breast = tested on: BT-549 breast
CAKI-1 renal = tested on: CAKI-1 renal
CCRF-CEM leukemia = tested on: CCRF-CEM leukemia
COLO 205 colon = tested on: COLO 205 colon
DU-145 prostate = tested on: DU-145 prostate
EKVX NSCLC = tested on: EKVX NSCLC
HCC-2998 colon = tested on: HCC-2998 colon
HCT-116 colon = tested on: HCT-116 colon
HCT-15 colon = tested on: HCT-15 colon
HL-60(TB) leukemia = tested on: HL-60(TB) leukemia
HOP-62 NSCLC = tested on: HOP-62 NSCLC
HOP-92 NSCLC = tested on: HOP-92 NSCLC
HS 578T breast = tested on: HS 578T breast
HT29 colon = tested on: HT29 colon
IGROV1 ovarian = tested on: IGROV1 ovarian
K-562 leukemia = tested on: K-562 leukemia
KM12 colon = tested on: KM12 colon
LOX IMVI melanoma = tested on: LOX IMVI melanoma
M14 melanoma = tested on: M14 melanoma
MALME-3M melanoma = tested on: MALME-3M melanoma
MCF7 breast = tested on: MCF7 breast
MDA-MB-231 breast = tested on: MDA-MB-231 breast
MDA-MB-435 = tested on: MDA-MB-435
MDA-MB-468 breast = tested on: MDA-MB-468 breast
MOLT-4 leukemia = tested on: MOLT-4 leukemia
NCI-H226 lung = tested on: NCI-H226 lung
NCI-H23 lung = tested on: NCI-H23 lung
NCI-H460 lung = tested on: NCI-H460 lung
NCI-H522 lung = tested on: NCI-H522 lung
NCI/ADR-RES ovarian = tested on: NCI/ADR-RES ovarian
OVCAR-3 ovarian = tested on: OVCAR-3 ovarian
OVCAR-4 ovarian = tested on: OVCAR-4 ovarian
OVCAR-5 ovarian = tested on: OVCAR-5 ovarian
OVCAR-8 ovarian = tested on: OVCAR-8 ovarian
PC-3 prostate = tested on: PC-3 prostate
RPMI-8226 leukemia = tested on: RPMI-8226 leukemia
RXF 393 renal = tested on: RXF 393 renal
SF-268 CNS = tested on: SF-268 CNS
SF-295 CNS = tested on: SF-295 CNS
SF-539 CNS = tested on: SF-539 CNS
SK-MEL-2 melanoma = tested on: SK-MEL-2 melanoma
SK-MEL-28 melanoma = tested on: SK-MEL-28 melanoma
SK-MEL-5 melanoma = tested on: SK-MEL-5 melanoma
SK-OV-3 ovarian = tested on: SK-OV-3 ovarian
SN12C renal = tested on: SN12C renal
SNB-19 CNS = tested on: SNB-19 CNS
SNB-75 CNS = tested on: SNB-75 CNS
SR leukemia = tested on: SR leukemia
SW-620 colon = tested on: SW-620 colon
T-47D breast = tested on: T-47D breast
TK-10 renal = tested on: TK-10 renal
U251 CNS = tested on: U251 CNS
UACC-257 melanoma = tested on: UACC-257 melanoma
UACC-62 melanoma = tested on: UACC-62 melanoma
UO-31 renal = tested on: UO-31 renal

Work on `COc1ccc(NC(=O)CSc2nnc(-c3ccc(-c4nc5ccc(Cl)cc5[nH]4)cc3)o2)cc1` yielded a GI50 (786-0 renal) of 1.74 µM, a TGI (786-0 renal) of 3.56 µM and a GI50 (A498 renal) of 4.26 µM. The TGI (A498 renal) was 16 µM, the GI50 (A549 NSCLC) was 2.44 µM and the TGI (A549 NSCLC) was 10.7 µM. It also gave a GI50 (ACHN renal) of 2.69 µM, a TGI (ACHN renal) of 11.6 µM and a GI50 (BT-549 breast) of 2.75 µM. It also gave a TGI (BT-549 breast) of 6.12 µM, a GI50 (CAKI-1 renal) of 1.54 µM and a TGI (CAKI-1 renal) of 3.38 µM. For the same compound, the GI50 (CCRF-CEM leukemia) was 6.86 µM, the TGI (CCRF-CEM leukemia) was over 100 µM and the GI50 (COLO 205 colon) was 19 µM. It also gave a TGI (COLO 205 colon) of 92.1 µM, a GI50 (DU-145 prostate) of 2.29 µM and a TGI (DU-145 prostate) of 5.61 µM. The GI50 (EKVX NSCLC) was 2.67 µM, the TGI (EKVX NSCLC) was 13.3 µM and the GI50 (HCC-2998 colon) was 43.5 µM. For the same compound, the TGI (HCC-2998 colon) was over 100 µM, the GI50 (HCT-116 colon) was 3.91 µM and the TGI (HCT-116 colon) was 26.7 µM. The GI50 (HCT-15 colon) was 7.77 µM, the TGI (HCT-15 colon) was 84.2 µM and the GI50 (HL-60(TB) leukemia) was over 100 µM. It also gave a TGI (HL-60(TB) leukemia) of over 100 µM, a GI50 (HOP-62 NSCLC) of 2.52 µM and a TGI (HOP-62 NSCLC) of 5.37 µM. It also gave a GI50 (HOP-92 NSCLC) of 2.62 µM, a TGI (HOP-92 NSCLC) of 10.6 µM and a GI50 (HS 578T breast) of 2.28 µM. It also gave a TGI (HS 578T breast) of 7.23 µM, a GI50 (HT29 colon) of 4.9 µM and a TGI (HT29 colon) of 23.3 µM. The GI50 (IGROV1 ovarian) was 12.4 µM, the TGI (IGROV1 ovarian) was 25.3 µM and the GI50 (K-562 leukemia) was 2.74 µM. For the same compound, the TGI (K-562 leukemia) was over 100 µM, the GI50 (KM12 colon) was 5.16 µM and the TGI (KM12 colon) was 25.7 µM. It also gave a GI50 (LOX IMVI melanoma) of 2.29 µM, a TGI (LOX IMVI melanoma) of 6.68 µM and a GI50 (M14 melanoma) of 3.74 µM. It also gave a TGI (M14 melanoma) of 17.2 µM, a GI50 (MALME-3M melanoma) of 1.9 µM and a TGI (MALME-3M melanoma) of 5.63 µM. The GI50 (MCF7 breast) was 4.39 µM, the TGI (MCF7 breast) was 74.2 µM and the GI50 (MDA-MB-231 breast) was 3.77 µM. It also gave a TGI (MDA-MB-231 breast) of 13.8 µM, a GI50 (MDA-MB-435) of 1.87 µM and a TGI (MDA-MB-435) of 8.03 µM. For the same compound, the GI50 (MDA-MB-468 breast) was 15 µM, the TGI (MDA-MB-468 breast) was 38.4 µM and the GI50 (MOLT-4 leukemia) was 6.46 µM. The TGI (MOLT-4 leukemia) was over 100 µM, the GI50 (NCI-H226 lung) was 1.94 µM and the TGI (NCI-H226 lung) was 5.19 µM. It also gave a GI50 (NCI-H23 lung) of 2.97 µM, a TGI (NCI-H23 lung) of 11.4 µM and a GI50 (NCI-H460 lung) of 1.35 µM. It also gave a TGI (NCI-H460 lung) of 4.16 µM, a GI50 (NCI-H522 lung) of 2.11 µM and a TGI (NCI-H522 lung) of 8.03 µM. It also gave a GI50 (NCI/ADR-RES ovarian) of 10.2 µM, a TGI (NCI/ADR-RES ovarian) of 42.9 µM and a GI50 (OVCAR-3 ovarian) of 3.72 µM. For the same compound, the TGI (OVCAR-3 ovarian) was 14 µM, the GI50 (OVCAR-4 ovarian) was 3.02 µM and the TGI (OVCAR-4 ovarian) was 10 µM. The GI50 (OVCAR-5 ovarian) was 6.44 µM, the TGI (OVCAR-5 ovarian) was 22 µM and the GI50 (OVCAR-8 ovarian) was 3.58 µM. It also gave a TGI (OVCAR-8 ovarian) of 26 µM, a GI50 (PC-3 prostate) of 1.61 µM and a TGI (PC-3 prostate) of 4.27 µM. For the same compound, the GI50 (RPMI-8226 leukemia) was 12 µM, the TGI (RPMI-8226 leukemia) was over 100 µM and the GI50 (RXF 393 renal) was 2.3 µM. It also gave a TGI (RXF 393 renal) of 5.61 µM, a GI50 (SF-268 CNS) of 2.22 µM and a TGI (SF-268 CNS) of 5.48 µM. For the same compound, the GI50 (SF-295 CNS) was 1.36 µM, the TGI (SF-295 CNS) was 4.05 µM and the GI50 (SF-539 CNS) was 1.9 µM. It also gave a TGI (SF-539 CNS) of 4.52 µM, a GI50 (SK-MEL-2 melanoma) of 6.96 µM and a TGI (SK-MEL-2 melanoma) of 25.4 µM. The GI50 (SK-MEL-28 melanoma) was 1.96 µM, the TGI (SK-MEL-28 melanoma) was 5.79 µM and the GI50 (SK-MEL-5 melanoma) was 3.02 µM. For the same compound, the TGI (SK-MEL-5 melanoma) was 11.8 µM, the GI50 (SK-OV-3 ovarian) was 2.87 µM and the TGI (SK-OV-3 ovarian) was 7.61 µM. For the same compound, the GI50 (SN12C renal) was 3.27 µM, the TGI (SN12C renal) was 16.3 µM and the GI50 (SNB-19 CNS) was 2.54 µM. The TGI (SNB-19 CNS) was 7.59 µM, the GI50 (SNB-75 CNS) was 1.42 µM and the TGI (SNB-75 CNS) was 3.86 µM. It also gave a GI50 (SR leukemia) of 10.3 µM, a TGI (SR leukemia) of over 100 µM and a GI50 (SW-620 colon) of 4.54 µM. It also gave a TGI (SW-620 colon) of 20.6 µM, a GI50 (T-47D breast) of 14.2 µM and a TGI (T-47D breast) of 57.9 µM. For the same compound, the GI50 (TK-10 renal) was 16.5 µM, the TGI (TK-10 renal) was 30.1 µM and the GI50 (U251 CNS) was 4.83 µM. The TGI (U251 CNS) was 16.5 µM, the GI50 (UACC-257 melanoma) was 3.83 µM and the TGI (UACC-257 melanoma) was 23.6 µM. The GI50 (UACC-62 melanoma) was 3.81 µM, the TGI (UACC-62 melanoma) was 15.3 µM and the GI50 (UO-31 renal) was 10.9 µM. It also gave a TGI (UO-31 renal) of 23.1 µM.
